These results are taken from publication PMC3602015 (PLoS ONE, 2013).

Data set [1] addresses T1, human P-gp with 1236T-2677T-3435T genotype (Homo sapiens, UniProt P08183). The experiment in a line: in vitro.
Method: (§1) For efflux assays, 1×10^5 cells were seeded on 96-well plates and cultured for 24 hours. […] After washed with warm PBS, cells were allowed to efflux rhodamine123 for 10 min at 37°C in the incubator. Samples (150 µl) were collected and transferred to 96-well black plates. Rhodamine123 concentrations were measured using a set of standards (from 62.5 nM to 8 µM) in HBSS analyzed by the SpectraMax Gemini XS microplate spectrofluorometer (Molecular Devices Co., Sunnyvale, CA, USA) with the excitation set at 485 nm and the emission set at 535 nm. The measured rhodamine123 concentrations were normalized to the total protein content in the cells. Total protein concentrations were measured by a microplate assay protocol (Dc protein assay reagent, Bio-Rad, Hercules, CA, USA), and bovine serum albumin was used as the standard. Each experiment was repeated at least three times across cell passages to ensure stability of transfection and consistency and reproducibility of the experiments.
(§2) For kinetic studies, kinetic parameters were estimated by nonlinear regression using Scientist v2.01 (MicroMath Scientific Software, Salt Lake City, UT, U.S.A.) according to the following equation: [drawing 6] Where V denoted the efflux rate; Vmax, the maximal efflux rate; Km, the Michaelis-Menten constant and C is the substrate concentration.
The target in data set [2] is T2, human wild-type P-gp (ABCB1 1236C-2677G-3435C) (Homo sapiens, UniProt P08183, S893A). The experiment in a line: in vitro.
Method: as §1, §2
The target in data set [3] is T2, human wild-type P-gp (ABCB1 1236C-2677G-3435C).
Method: as §1, §2
Data set [4] has as its target T3, human P-gp with 1236T-2677A-3435T genotype (Homo sapiens, UniProt P08183, S893T). As to the kind of experiment: in vitro.
Method: as §1, §2
For data set [5], the target named is T3, human P-gp with 1236T-2677A-3435T genotype.
Method: as §1, §2
Data set [6] addresses T1, human P-gp with 1236T-2677T-3435T genotype.
Method: as §1, §2
Data set [7] concerns the target T2, human wild-type P-gp (ABCB1 1236C-2677G-3435C). The experiment in a line: cell-based.
Method: as §1, §2
A further data set relates to Flp-In™-293 cells. As to the kind of experiment: Cytotoxicity assay (MTT). Type of data set: cell-based, human. The conditions noted are these: methadone 0.5 to 40 µM; 48 hours. Here is the method: Briefly, the cells were seeded into 24-well plates and cultured overnight. […] After incubation, the medium was removed and added fresh culture medium 200 µl containing 0.5 mg/ml MTT and then incubated at 37°C for 4 hours. After incubation, the medium was removed and 200 µl DMSO was added, and incubation for 30 minutes at room temperature. After incubation, 100 µl of solution was transferred to a 96-well plate and absorbance was measured using an ELISA plate reader (Molecular Devices, Sunnyvale, USA) at 570 nm with a reference wavelength of 650 nm.

The conditions of data set [8]: cited from earlier work.
Data set [9] has as its target T1, human P-gp with 1236T-2677T-3435T genotype. As to the kind of experiment: cell-based.
Method: as §1, §2
Data set [10] deals with T3, human P-gp with 1236T-2677A-3435T genotype. The experiment in a line: cell-based.
Method: as §1, §2

T2 sequence (P08183 whole entry S893A): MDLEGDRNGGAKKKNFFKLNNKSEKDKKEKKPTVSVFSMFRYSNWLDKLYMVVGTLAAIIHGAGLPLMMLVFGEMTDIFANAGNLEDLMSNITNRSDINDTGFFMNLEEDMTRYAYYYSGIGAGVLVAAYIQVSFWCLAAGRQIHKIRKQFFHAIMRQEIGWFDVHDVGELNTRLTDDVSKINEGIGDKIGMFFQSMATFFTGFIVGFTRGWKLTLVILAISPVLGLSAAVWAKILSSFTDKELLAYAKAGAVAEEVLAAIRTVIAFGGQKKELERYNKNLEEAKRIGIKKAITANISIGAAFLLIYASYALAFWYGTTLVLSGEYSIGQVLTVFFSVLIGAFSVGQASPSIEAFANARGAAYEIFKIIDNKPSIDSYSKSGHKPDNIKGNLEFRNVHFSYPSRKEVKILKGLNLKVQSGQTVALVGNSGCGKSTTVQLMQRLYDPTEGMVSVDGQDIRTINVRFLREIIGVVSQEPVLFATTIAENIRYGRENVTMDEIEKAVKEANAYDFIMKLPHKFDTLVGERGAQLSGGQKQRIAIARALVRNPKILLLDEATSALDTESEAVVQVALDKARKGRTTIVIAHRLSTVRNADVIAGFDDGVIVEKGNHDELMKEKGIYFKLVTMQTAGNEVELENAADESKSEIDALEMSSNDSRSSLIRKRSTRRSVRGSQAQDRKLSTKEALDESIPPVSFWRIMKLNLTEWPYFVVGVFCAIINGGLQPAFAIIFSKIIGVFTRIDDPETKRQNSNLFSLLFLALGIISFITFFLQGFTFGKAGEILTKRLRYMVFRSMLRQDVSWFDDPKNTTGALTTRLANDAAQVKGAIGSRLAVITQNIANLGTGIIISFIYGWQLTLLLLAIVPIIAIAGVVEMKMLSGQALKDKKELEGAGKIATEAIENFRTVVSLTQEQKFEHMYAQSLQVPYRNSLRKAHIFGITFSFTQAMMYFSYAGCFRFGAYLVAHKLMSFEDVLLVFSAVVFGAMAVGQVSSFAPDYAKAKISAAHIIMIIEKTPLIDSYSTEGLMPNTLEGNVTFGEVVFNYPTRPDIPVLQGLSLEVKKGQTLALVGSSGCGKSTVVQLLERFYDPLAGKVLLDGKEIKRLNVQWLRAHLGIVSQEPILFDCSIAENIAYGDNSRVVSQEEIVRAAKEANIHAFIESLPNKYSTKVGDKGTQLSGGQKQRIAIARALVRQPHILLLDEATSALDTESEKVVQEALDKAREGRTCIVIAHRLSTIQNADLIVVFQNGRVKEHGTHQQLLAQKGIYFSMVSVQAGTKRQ
T3 sequence (P08183 whole entry S893T): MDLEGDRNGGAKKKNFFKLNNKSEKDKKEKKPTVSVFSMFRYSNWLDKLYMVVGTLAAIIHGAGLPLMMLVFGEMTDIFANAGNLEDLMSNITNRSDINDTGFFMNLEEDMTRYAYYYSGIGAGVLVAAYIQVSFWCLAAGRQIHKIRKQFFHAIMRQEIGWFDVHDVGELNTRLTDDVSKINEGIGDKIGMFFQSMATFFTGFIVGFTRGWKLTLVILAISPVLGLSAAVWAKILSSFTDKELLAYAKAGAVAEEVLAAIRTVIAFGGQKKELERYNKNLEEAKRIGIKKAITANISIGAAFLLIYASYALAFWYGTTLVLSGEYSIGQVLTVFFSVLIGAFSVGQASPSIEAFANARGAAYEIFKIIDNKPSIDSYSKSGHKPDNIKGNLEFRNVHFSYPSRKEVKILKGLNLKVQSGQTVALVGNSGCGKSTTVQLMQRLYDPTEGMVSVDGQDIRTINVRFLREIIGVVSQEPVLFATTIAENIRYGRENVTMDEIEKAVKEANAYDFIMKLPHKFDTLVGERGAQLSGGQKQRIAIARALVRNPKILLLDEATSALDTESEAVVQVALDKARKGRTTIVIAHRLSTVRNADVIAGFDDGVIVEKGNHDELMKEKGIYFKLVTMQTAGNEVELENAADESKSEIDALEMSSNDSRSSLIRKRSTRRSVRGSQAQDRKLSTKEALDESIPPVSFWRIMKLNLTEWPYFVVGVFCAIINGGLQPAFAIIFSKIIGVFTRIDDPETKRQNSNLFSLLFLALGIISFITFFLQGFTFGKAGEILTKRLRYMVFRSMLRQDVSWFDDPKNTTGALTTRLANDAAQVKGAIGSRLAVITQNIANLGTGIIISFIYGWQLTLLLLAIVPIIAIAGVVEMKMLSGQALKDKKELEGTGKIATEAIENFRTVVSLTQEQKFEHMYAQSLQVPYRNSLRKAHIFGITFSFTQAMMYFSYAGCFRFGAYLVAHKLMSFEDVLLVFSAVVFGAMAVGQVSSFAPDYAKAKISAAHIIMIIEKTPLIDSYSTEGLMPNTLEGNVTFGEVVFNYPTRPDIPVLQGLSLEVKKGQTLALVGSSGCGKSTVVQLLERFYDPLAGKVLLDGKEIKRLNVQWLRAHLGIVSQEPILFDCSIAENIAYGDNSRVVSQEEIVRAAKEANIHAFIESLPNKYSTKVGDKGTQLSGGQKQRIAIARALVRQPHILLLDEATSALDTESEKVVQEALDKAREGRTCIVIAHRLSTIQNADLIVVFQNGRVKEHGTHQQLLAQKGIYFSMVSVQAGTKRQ
T1 sequence (P08183 whole entry): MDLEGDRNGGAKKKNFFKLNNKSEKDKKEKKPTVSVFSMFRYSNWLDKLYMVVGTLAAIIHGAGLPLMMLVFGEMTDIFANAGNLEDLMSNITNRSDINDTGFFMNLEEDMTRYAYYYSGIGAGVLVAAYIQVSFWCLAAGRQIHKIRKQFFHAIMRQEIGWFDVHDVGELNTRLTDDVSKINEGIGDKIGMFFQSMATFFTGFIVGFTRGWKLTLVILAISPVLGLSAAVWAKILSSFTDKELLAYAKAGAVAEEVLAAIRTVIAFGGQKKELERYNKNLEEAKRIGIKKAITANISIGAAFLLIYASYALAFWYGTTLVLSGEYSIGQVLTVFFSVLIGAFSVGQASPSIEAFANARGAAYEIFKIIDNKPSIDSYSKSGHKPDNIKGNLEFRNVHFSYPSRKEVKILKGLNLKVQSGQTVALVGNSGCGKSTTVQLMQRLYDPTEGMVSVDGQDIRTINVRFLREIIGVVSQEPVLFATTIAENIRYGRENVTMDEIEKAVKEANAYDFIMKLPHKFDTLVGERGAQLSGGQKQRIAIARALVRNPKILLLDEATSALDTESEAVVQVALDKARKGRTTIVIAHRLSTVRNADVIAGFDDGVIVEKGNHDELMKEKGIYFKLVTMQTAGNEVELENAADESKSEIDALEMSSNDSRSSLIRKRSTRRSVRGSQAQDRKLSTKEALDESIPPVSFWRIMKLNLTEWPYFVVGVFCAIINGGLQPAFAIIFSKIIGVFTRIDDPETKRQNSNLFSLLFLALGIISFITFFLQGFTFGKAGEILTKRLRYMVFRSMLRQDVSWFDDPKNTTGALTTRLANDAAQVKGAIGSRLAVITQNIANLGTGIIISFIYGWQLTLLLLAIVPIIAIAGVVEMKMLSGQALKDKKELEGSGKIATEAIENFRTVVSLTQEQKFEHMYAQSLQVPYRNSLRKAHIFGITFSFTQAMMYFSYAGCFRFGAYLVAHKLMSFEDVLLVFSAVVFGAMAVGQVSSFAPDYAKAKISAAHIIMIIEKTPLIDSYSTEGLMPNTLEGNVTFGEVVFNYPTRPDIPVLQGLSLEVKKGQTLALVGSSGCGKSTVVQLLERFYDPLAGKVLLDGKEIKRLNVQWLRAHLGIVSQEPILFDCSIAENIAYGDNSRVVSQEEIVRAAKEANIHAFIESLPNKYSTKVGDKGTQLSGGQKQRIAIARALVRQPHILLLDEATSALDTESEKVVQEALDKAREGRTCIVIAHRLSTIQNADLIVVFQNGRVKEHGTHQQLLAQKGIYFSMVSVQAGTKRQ

For orientation: Km means the concentration of substrate that gives half-maximal velocity. As to `COC(=O)c1ccccc1-c1c2ccc(=N)cc-2oc2cc(N)ccc12` [Rhodamine 123], the Michaelis constant (Km) at 10 min in [1] came out at 18.8 ± 2 µM; in data set [2], 16.6 ± 3.01 µM; in data set [4], 14.8 ± 1.72 µM. The “non-specific first-order rate constant of rhodamine 123 efflux” value in data set [3] came out at 12.08±1.23 µL/mg protein/10 min. Moreover, the “non-specific transport as share of the total efflux” value in data set [3] is recorded as 2.9%. Besides, the “Vmax of rhodamine 123 efflux” value was found to be 7.34±0.63 nmole/mg protein/10 min in [5] and 8.29±0.89 nmole/mg protein/10 min in [6].

By IC50 is commonly meant the concentration needed to halve the response being measured. The low end stands for greater potency in that assay, the high end for weaker potency in that assay. By Ki is commonly meant a dissociation constant, usually derived from enzyme kinetics or from competition with a known ligand. Read a low Ki as higher affinity. `CCC(=O)C(CC(C)N(C)C)(c1ccccc1)c1ccccc1` (stereo not drawn) [methadone]: the IC50 is 2.17 ± 0.1 µM in [7], 2.97 ± 0.09 µM in [9] and 4.43 ± 1.1 µM in [10]. For the same compound, the Ki in [7] was 2.77 ± 0.15 µM; in data set [9], 3.92 ± 0.07 µM; in data set [10] it was 4.53 ± 1.17 µM. Besides, in the data set with Flp-In™-293 cells, the “cell viability (MTT assay)” value is “did not affect”. For the same compound, the therapeutic range in data set [8] is 1 to 3 µM.
